# Laboratory results as given in patent US20040038201A1, “Diagnostic and therapeutic applications for biomarkers of infection” (Whitehead Institute for Biomedical Research, priority 2002, published 2004).
# B1: IL-10: cytokine incubated with macrophages (protein, UniProt P22301 19-178, looked up)
# Interleukin-10: SPGQGTQSENSCTHFPGNLPNMLRDLRDAFSRVKTFFQMKDQLDNLLLKESLLEDFKGYLGCQALSEMIQFYLEEVMPQAENQDPDIKAHVNSLGENLKTLRLRLRRCHRFLPCENKSKAVEQVKNAFNKLQEKGIYKAMSEFDIFINYIEAYMTMKIRN
# What was measured:
# [1] = test system: human macrophages; format: cell-based; details: 24-hour time course; LPS 1 μg/mL, LTA 10 μg/mL, MDP 100 μg/mL, hsps 10 μg/mL
# [2] = test system: human macrophages; experiment: Differential (Gram-negative/TLR4-specific) macrophage gene expression after bacterial components or cytokines, HuFL GeneChips; format: cell-based; details: for expression pattern of the 101 genes differentially regulated by Gram-negative versus Gram-positive bacteria: LPS 1 μg/mL, LTA 10 μg/mL, MDP 100 μg/mL, fMLP 100 nM; for induction of the TLR4-induced core cluster of genes by cytokines: IFNs at 1000 units/mL
# [3] = test system: human macrophages; experiment: I-TAC ELISA of macrophage supernatants; format: cell-based; details: for I-TAC production by macrophages in response to bacterial components: supernatants after 24 hours, LPS 1 μg/mL, MDP 100 μg/mL; for I-TAC production by macrophages in response to IFNs: 100 units/mL IFN
# [4] = test system: human macrophages; experiment: IL-12 p40 ELISA of macrophage supernatants; format: cell-based; details: LPS 1 μg/mL, MDP 100 μg/mL
# [5] = test system: human macrophages; experiment: IL-12 p70 ELISA of macrophage supernatants; format: cell-based; details: LPS 1 μg/mL, MDP 100 μg/mL
# [6] = test system: macrophages; format: cell-based, human
# [7] = test system: STAT1; experiment: Phosphorylation of macrophage STAT1; format: cell-based, human
# [8] = test system: dendritic cells; experiment: I-TAC production by dendritic cells (ELISA); details: 24 hours after exposure to LPS or lipoteichoic acid
# [9] = test system: mycobacterial infection; details: supplemental IL-12; cited from earlier work
# [10] = test system: M. abscessus infection, M. tuberculosis infection; details: exogenous IL-12 therapy; cited from earlier work
# [11] = target: T1, TLR-4 (Homo sapiens, UniProt O00206+Q9Y6Y9); experiment: TLR-4 antagonist (RSLA) pretreatment, TNF-alpha ELISA of stimulated macrophages; format: cell-based; details: 1 μg/mL RSLA, 30 minutes pretreatment; 10 μg/mL hsp70
# T1 construct: endogenous in cells; host or cells: human monocyte-derived macrophages (primary)
# T1 sequence (O00206 24-839): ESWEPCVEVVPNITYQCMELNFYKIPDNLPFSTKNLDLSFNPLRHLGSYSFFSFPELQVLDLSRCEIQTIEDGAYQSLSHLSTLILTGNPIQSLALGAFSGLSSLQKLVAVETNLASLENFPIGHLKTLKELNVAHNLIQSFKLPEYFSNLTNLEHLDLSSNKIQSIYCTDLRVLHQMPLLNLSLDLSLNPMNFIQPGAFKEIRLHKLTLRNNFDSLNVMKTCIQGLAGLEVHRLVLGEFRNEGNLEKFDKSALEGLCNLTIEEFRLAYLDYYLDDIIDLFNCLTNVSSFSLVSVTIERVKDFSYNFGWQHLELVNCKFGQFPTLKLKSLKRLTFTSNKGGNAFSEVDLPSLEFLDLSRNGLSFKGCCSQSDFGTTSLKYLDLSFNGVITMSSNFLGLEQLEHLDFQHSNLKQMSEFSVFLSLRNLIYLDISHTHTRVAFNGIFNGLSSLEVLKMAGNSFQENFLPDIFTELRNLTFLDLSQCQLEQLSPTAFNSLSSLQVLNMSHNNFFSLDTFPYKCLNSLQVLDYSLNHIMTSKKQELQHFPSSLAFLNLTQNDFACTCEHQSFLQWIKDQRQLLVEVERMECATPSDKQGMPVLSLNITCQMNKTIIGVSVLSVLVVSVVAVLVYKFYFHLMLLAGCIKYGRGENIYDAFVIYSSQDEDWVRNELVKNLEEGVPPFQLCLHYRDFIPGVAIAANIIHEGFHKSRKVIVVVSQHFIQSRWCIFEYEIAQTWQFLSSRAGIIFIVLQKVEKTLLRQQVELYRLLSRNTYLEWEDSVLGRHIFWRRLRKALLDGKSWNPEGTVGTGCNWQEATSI
# T1 sequence (Q9Y6Y9 17-160 limits assumed): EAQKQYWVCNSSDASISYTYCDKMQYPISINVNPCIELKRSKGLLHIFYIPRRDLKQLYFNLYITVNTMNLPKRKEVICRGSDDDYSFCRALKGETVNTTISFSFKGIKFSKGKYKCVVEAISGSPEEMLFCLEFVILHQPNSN
# Description: FIG. 9 is a graphical representation showing a specific TLR-4 antagonist inhibits production of TNF-alpha by hsp70. Monocytes were plated at […] in 96-well Primaria plates and matured to macrophages as described. Cells were washed with Hank's Balanced Salt Solution incubated overnight in DMEM, 1% human serum, and pretreated for 30 minutes at 37° C. with 1 μg/mL Rhodobacter sphaeroides lipid A (RSLA). RSLA is a specific antagonist of TLR-4. Cells were then stimulated with 0.1 MOI E. coli sd-4, 1 μg/mL LPS, or 10 μg/mL hsp70 to duplicate, and culture media was collected at 0, 2, 6, and 12 hours. ELISAs were performed using manufacturer's protocols.
molecule,measurement,setting,value
lipoteichoic acid [LTA],induction of the macrophage activation program (gene expression changes),[1],induced the majority of the activation program
same,induction of the cluster of nine genes specific to Gram-positive bacteria,[2],insufficient to induce this small cluster of genes
same,expression pattern of the 101 genes differentially regulated by Gram-negative versus Gram-positive bacteria,[2],induced gene expression changes similar to the Gram-positive organisms
same,I-TAC production by macrophages in response to bacterial components,[3],not
"CC(=O)N[C@H]1C(O)O[C@H](CO)[C@@H](O)[C@@H]1O[C@H](C)C(=O)N[C@@H](C)C(=O)N[C@H](CCC(=O)O)C(N)=O (mixture of isomers) [MDP, muramyl dipeptide]",induction of the macrophage activation program (gene expression changes),[1],induced the majority of the activation program
same,induction of the cluster of nine genes specific to Gram-positive bacteria,[2],insufficient to induce this small cluster of genes
same,expression pattern of the 101 genes differentially regulated by Gram-negative versus Gram-positive bacteria,[2],induced gene expression changes similar to the Gram-positive organisms
same,I-TAC production by macrophages in response to bacterial components,[3],not
same,IL-12 p40 secretion by macrophages,[4],elicited
same,IL-12 p70 production by macrophages in response to bacterial components,[5],did not
hsp70: Recombinant mycobacterial heat shock protein from StressGen,induction of the macrophage activation program (gene expression changes),[1],induced the majority of the activation program
same,cytokine elicited relative to the endotoxin-equivalent amount of LPS,"[6]; 0.06 Eu/mL = 13 pg/mL LPS, 10 μg/mL hsp 70",3-6 times
IFN-γ: IFN-γ from R&D Systems,induction of the TLR4-induced core cluster of genes by cytokines,[2],sufficient to induce the expression of the TLR4-induced core cluster of genes
same,I-TAC production by macrophages in response to IFNs,[3],sufficient to induce I-TAC production
lipopolysaccharide [LPS],induction of the macrophage activation program (gene expression changes),[1],induced the majority of the activation program
same,gene expression changes compared with whole Gram-negative bacteria,[2],less robust in magnitude and duration
same,expression pattern of the 101 genes differentially regulated by Gram-negative versus Gram-positive bacteria,[2],recapitulated the expression pattern of the 101 genes
same,"maximum level of I-TAC secretion, macrophages",[3]; 24 hours after exposure to LPS or lipoteichoic acid,2.8 ng/mL
same,I-TAC production by macrophages in response to bacterial components,[3],induced
same,IL-12 p40 secretion by macrophages,[4],elicited
same,IL-12 p70 production by macrophages in response to bacterial components,[5],stimulated p70 production
same,"endotoxin levels that did not stimulate production of either cytokine (TNF-alpha, IL-12 p40)",[6]; LPS titration,lower than 1.4 Eu/mL
same,endotoxin required to elicit IL-12 p40 relative to TNF-alpha,[6]; LPS titration,Roughly 100 fold
same,phosphorylation of macrophage STAT1,[7],observed
same,"maximum level of I-TAC secretion, dendritic cells",[8],59 ng/mL
IL-12: cytokine incubated with macrophages; exogenous IL-12 therapy in cited studies,induction of the TLR4-induced core cluster of genes by cytokines,[2],failed to induce comparable gene expression changes
same,clearance of mycobacterial infection in normal mice,[9],enhances the ability of normal mice to clear a mycobacterial infection
same,clinical outcome in patients with infections refractory to antibiotics and supplemental IFN-γ,[10],rescued two patients
formyl-methionine-leucine-phenylalanine [formyl-MetLeuPhe],expression pattern of the 101 genes differentially regulated by Gram-negative versus Gram-positive bacteria,[2],failed to induce expression changes that were characteristic of either class of bacteria
IFN-α,induction of the TLR4-induced core cluster of genes by cytokines,[2],sufficient to induce the expression of the TLR4-induced core cluster of genes
same,I-TAC production by macrophages in response to IFNs,[3],sufficient to induce I-TAC production
Rhodobacter sphaeroides lipid A [RSLA],production of TNF-alpha by hsp70-stimulated macrophages after antagonist pretreatment,[11],inhibits
monophosphoryl lipid A,induction of the macrophage activation program (gene expression changes),[1],failed to induce this set of gene expression changes
B1,induction of the TLR4-induced core cluster of genes by cytokines,[2],failed to induce comparable gene expression changes
